Source: PubChem BioAssay AID1963974 (Molecular Pharmacology Branch, DTP, NCI, 2024)
Several values for one entry are separate records, joined by “and”; a condition that tells them apart may be missing. Identical values can stand only once.

System: 648629-189-R-J1-PDC spheroids with HUVEC/MSC, viability
Experiment: Anticancer human tumor 648629-189-R-J1-PDC patient-derived bladder carcinoma cell line growth inhibition [PI3K]
Conditions: for viability, T/C: stronger effect = lower value
Procedure, shortened: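 Multi-cell spheroids combine tumor cells with HUVEC and human MSCs, treated with targeted agents alone or with inavolisib, alpelisib, duvelisib or copanlisib. Concentrations fall in half-log steps from at or near clinical Cmax, or from 10 microM where Cmax is unknown; viability read-out.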

[1] = curve of first compound, second compound 0.0316 µM
[2] = curve of first compound, second compound 0.1 µM
[3] = curve of first compound, second compound 0.316 µM
[4] = curve of first compound, second compound 1 µM
[5] = second compound 0.0316 µM, first compound 0.000316 µM
[6] = second compound 0.0316 µM, first compound 0.001 µM
[7] = second compound 0.0316 µM, first compound 0.00316 µM
[8] = second compound 0.0316 µM, first compound 0.01 µM
[9] = second compound 0.0316 µM, first compound 0.0316 µM
[10] = second compound 0.0316 µM, first compound 0.1 µM
[11] = second compound 0.1 µM, first compound 0.000316 µM
[12] = second compound 0.1 µM, first compound 0.001 µM
[13] = second compound 0.1 µM, first compound 0.00316 µM
[14] = second compound 0.1 µM, first compound 0.01 µM
[15] = second compound 0.1 µM, first compound 0.0316 µM
[16] = second compound 0.1 µM, first compound 0.1 µM
[17] = second compound 0.316 µM, first compound 0.000316 µM
[18] = second compound 0.316 µM, first compound 0.001 µM
[19] = second compound 0.316 µM, first compound 0.00316 µM
[20] = second compound 0.316 µM, first compound 0.01 µM
[21] = second compound 0.316 µM, first compound 0.0316 µM
[22] = second compound 0.316 µM, first compound 0.1 µM
[23] = second compound 1 µM, first compound 0.000316 µM
[24] = second compound 1 µM, first compound 0.001 µM
[25] = second compound 1 µM, first compound 0.00316 µM
[26] = second compound 1 µM, first compound 0.01 µM
[27] = second compound 1 µM, first compound 0.0316 µM
[28] = second compound 1 µM, first compound 0.1 µM
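Note: spheroids exposed to agents for seven days before reading.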
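Throughout, for viability, T/C: percent of vehicle control luminescence where 100% = DMSO treated spheroids.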

With `CC(=O)c1c(C)c2cnc(Nc3ccc(N4CCNCC4)cn3)nc2n(C2CCCC2)c1=O` + Cc1nc(NC(=O)N2CCCC2C(N)=O)sc1-c1ccnc(C(C)(C)C(F)(F)F)c1 the IC50 [1] was > 100 nM, the IC50 [2] was > 100 nM and the IC50 [3] was > 100 nM. For the same compound, the IC50 [4] was > 100 nM, the IC50 (curve of first compound, second compound 3.16 µM) was > 100 nM and the IC50 (curve of first compound, second compound 10 µM) was < 0.316 nM. It also gave a viability, T/C [5] of 91.4%, a viability, T/C [6] of 91.7% and a viability, T/C [7] of 100%. The viability, T/C [8] was 100%, the viability, T/C [9] was 96.6% and the viability, T/C [10] was 101%. The viability, T/C [11] was 91.1%, the viability, T/C [12] was 96.9% and the viability, T/C [13] was 93.7%. For the same compound, the viability, T/C [14] was 91.9%, the viability, T/C [15] was 107% and the viability, T/C [16] was 91.2%. It also gave a viability, T/C [17] of 80.9%, a viability, T/C [18] of 86.1% and a viability, T/C [19] of 85.1%. It also gave a viability, T/C [20] of 84.1%, a viability, T/C [21] of 90.2% and a viability, T/C [22] of 85.3%. For the same compound, the viability, T/C [23] was 72.4%, the viability, T/C [24] was 68.1% and the viability, T/C [25] was 73.7%. The viability, T/C [26] was 71.7%, the viability, T/C [27] was 70.5% and the viability, T/C [28] was 71.9%. The viability, T/C (second compound 3.16 µM, first compound 0.000316 µM) was 52.6%, the viability, T/C (second compound 3.16 µM, first compound 0.001 µM) was 53.2% and the viability, T/C (second compound 3.16 µM, first compound 0.00316 µM) was 61.6%. The viability, T/C (second compound 3.16 µM, first compound 0.01 µM) was 54.9%, the viability, T/C (second compound 3.16 µM, first compound 0.0316 µM) was 54.6% and the viability, T/C (second compound 3.16 µM, first compound 0.1 µM) was 54.6%. The viability, T/C (second compound 10 µM, first compound 0.000316 µM) was 36.5%, the viability, T/C (second compound 10 µM, first compound 0.001 µM) was 44.9% and the viability, T/C (second compound 10 µM, first compound 0.00316 µM) was 38.9%. For the same compound, the viability, T/C (second compound 10 µM, first compound 0.01 µM) was 30.1%, the viability, T/C (second compound 10 µM, first compound 0.0316 µM) was 44.1% and the viability, T/C (second compound 10 µM, first compound 0.1 µM) was 34%.

For `C=CC(=O)N1CCN(c2nc(=O)n(-c3c(C)ccnc3C(C)C)c3nc(-c4c(O)cccc4F)c(F)cc23)C(C)C1` (stereo unspecified), the viability, T/C (compound 0.0316 µM) was 112% [middle of 4 runs], the viability, T/C (compound 0.1 µM) was 103% (2×) and 102% and 99.5% and the viability, T/C (compound 0.316 µM) was 110% and 107% (2×) and 100%. The viability, T/C (compound 1 µM) was 109% [middle of 4 runs], the viability, T/C (compound 3.16 µM) was 105% [middle of 4 runs] and the viability, T/C (compound 10 µM) was 96% [middle of 4 runs]. For the same compound, the IC50 (curve of compound) was > 10000 nM.

`Cn1ncnc1[C@H]1c2n[nH]c(=O)c3cc(F)cc(c23)N[C@@H]1c1ccc(F)cc1` + CC(Nc1ccc2c(c1)OCCn1cc(N3C(=O)OCC3C(F)F)nc1-2)C(N)=O was tested, and the IC50 (curve of first compound, second compound 0.00316 µM) was > 100 nM, the IC50 (curve of first compound, second compound 0.01 µM) was > 100 nM and the IC50 [1] was > 100 nM. The IC50 [2] was > 100 nM, the IC50 [3] was > 100 nM and the IC50 [4] was 68.3 nM. It also gave a viability, T/C (second compound 0.00316 µM, first compound 0.000316 µM) of 108%, a viability, T/C (second compound 0.00316 µM, first compound 0.001 µM) of 110% and a viability, T/C (second compound 0.00316 µM, first compound 0.00316 µM) of 102%. The viability, T/C (second compound 0.00316 µM, first compound 0.01 µM) was 83.5%, the viability, T/C (second compound 0.00316 µM, first compound 0.0316 µM) was 75.6% and the viability, T/C (second compound 0.00316 µM, first compound 0.1 µM) was 63.8%. It also gave a viability, T/C (second compound 0.01 µM, first compound 0.000316 µM) of 115%, a viability, T/C (second compound 0.01 µM, first compound 0.001 µM) of 106% and a viability, T/C (second compound 0.01 µM, first compound 0.00316 µM) of 97.3%. It also gave a viability, T/C (second compound 0.01 µM, first compound 0.01 µM) of 86.4%, a viability, T/C (second compound 0.01 µM, first compound 0.0316 µM) of 69.4% and a viability, T/C (second compound 0.01 µM, first compound 0.1 µM) of 62%. The viability, T/C [5] was 101%, the viability, T/C [6] was 99.2% and the viability, T/C [7] was 96%. For the same compound, the viability, T/C [8] was 79.2%, the viability, T/C [9] was 82% and the viability, T/C [10] was 61.7%. The viability, T/C [11] was 97.8%, the viability, T/C [12] was 93.4% and the viability, T/C [13] was 105%. The viability, T/C [14] was 77.5%, the viability, T/C [15] was 70.2% and the viability, T/C [16] was 55.3%. The viability, T/C [17] was 76%, the viability, T/C [18] was 86.7% and the viability, T/C [19] was 73.3%. For the same compound, the viability, T/C [20] was 69.7%, the viability, T/C [21] was 60.9% and the viability, T/C [22] was 55.5%. It also gave a viability, T/C [23] of 69.5%, a viability, T/C [24] of 60.5% and a viability, T/C [25] of 69.2%. The viability, T/C [26] was 66%, the viability, T/C [27] was 61% and the viability, T/C [28] was 44.4%.
